Reference: patent US12509451B2, “Heteroaryl amide inhibitors of CD38” (NAPA THERAPEUTICS LTD., priority 2020, dated 2025)

How the values were obtained:
[1] = target: T1, recombinant mouse CD38 Protein (Mus musculus, UniProt P56528); assay: Fluorescence-based NAD+ hydrolase activity assay with mouse recombinant CD38 protein (Assay 5); type: biochemical; conditions: read-out: Assay 5 Arithmetic mean IC50
T1 construct: purchased R&D System
T1 sequence (P56528 1-304): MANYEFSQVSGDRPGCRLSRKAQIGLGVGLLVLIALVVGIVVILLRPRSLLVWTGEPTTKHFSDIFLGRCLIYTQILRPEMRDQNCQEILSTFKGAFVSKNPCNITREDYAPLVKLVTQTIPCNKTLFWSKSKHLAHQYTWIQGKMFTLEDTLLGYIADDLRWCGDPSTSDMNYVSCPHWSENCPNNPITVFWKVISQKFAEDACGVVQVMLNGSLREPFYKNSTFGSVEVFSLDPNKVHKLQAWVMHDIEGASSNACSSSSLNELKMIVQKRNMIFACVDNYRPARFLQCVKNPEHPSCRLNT
Procedure: This protocol was modified from the following references: Muller et al. (1983); Schultz et al. (2018); Matalonga et al. (2017); and de Oliveira et al. (2018), supra.
(§1) NAD+ hydrolase activity of the mouse recombinant CD38 protein treated with test compounds was measured using a fluorescence-based assay. Briefly, recombinant mouse CD38 Protein (R&D System) was resuspended in 44 μl/well of Sucrose-Tris Buffer (Sucrose 0.25 M, Tris pH 7.4 40 mM) and plated in a 96 well black plate (CORNING) at a density of 2.5 ng/well.
(§2) Each test compound was received in a powder state and dissolved in DMSO as a 25 mM stock solution. Each test compound was serially diluted in order to generate a dose-response curve. The dilution series of each test compound in DMSO was prepared at 50 times the concentrations to be assayed. Each test compound was diluted to generate a 5-fold dilution series of 8 concentrations from 20 μM to 0.256 nM in order to assay 8 final concentrations ranging from 400 nM to 25.6 pM. One μl of the 50× concentration compound series was added to each well of the plate containing 2.5 ng of protein in Sucrose-Tris buffer.
Each plate had the following intra plate controls: 3 wells containing cells treated with vehicle only (DMSO), 3 wells of cells treated with the reference compounds 78c at a final concentration of 50 nM and 2 wells containing only Sucrose-Tris buffer (used as a background value).
The reaction was started adding nicotinamide 1,N^6-etheno-adenine dinucleotide (Sigma Aldrich) to reach a final concentration of 80 µM. The samples were excited at 321-15 nm and the emission of fluorescence was measured at 410-20 nm at 37° C. every minute for 1 hr in a Clariostar Microplate® reader (BMG LABTECH). NAD+ hydrolase activity was calculated as the slope of the linear portion of the fluorescence-time curve using the MARS data analysis software (BMG LABTECH). The data were uploaded in the Collaborative Drug Design (CDD) Software and for each compound the IC50 was calculated by the software. Each compound was tested in 3 independent experiments on 3 separate days to establish the reproducibility of the results. For each plate, the z-factor was also calculated as a plate quality using the CDD software.

[2] = target: T1, recombinant mouse CD38 Protein; assay: Fluorescence-based NAD+ cyclase activity assay with mouse recombinant CD38 protein (Assay 4); type: biochemical; conditions: read-out: Assay 4 Arithmetic mean IC50
Procedure: This protocol was modified from de Oliveira et al. (2018) supra.
as §1, with “NAD+ cyclase” for “NAD+ hydrolase”, “the […]” for “the mouse”, “a 96-well” for “a 96 well”, “of 32” for “of 2.5”
as §2, with “100” for “20”, “32” for “0.256”, “2 μM” for “400 nM”, “0.64 nM.” for “25.6 pM.”, “125” for “2.5”
Each plate had the following intra plate controls: 3 wells containing cells treated with vehicle only (DMSO), 3 wells of cells treated with the reference compounds 78c at a final concentration of 500 nM and 2 wells containing only Sucrose-Tris buffer (used as a background value).
The reaction was started adding nicotinamide guanine dinucleotide (NGD+) (Sigma Aldrich) to reach a final concentration of 150 µM. The samples were excited at 337-15 nm and the emission of fluorescence was measured at 442-20 nm at 37° C. every minute for 1 hr in a Clariostar® microplate reader (BMG LABTECH). NAD+ cyclase activity was calculated as the slope of the linear portion of the fluorescence-time curve using the MARS data analysis software (BMG LABTECH). The data were uploaded in the Collaborative Drug Design (CDD) Software and for each compound the IC50 was calculated by the software. Each compound was tested in 3 independent experiments on 3 separate days to establish the reproducibility of the results. For each plate, the z-factor was also calculated as a plate quality using the CDD software.

- IC50 [1]: 1 to 50 nM
- IC50 [2]: 51 to 1000 nM
Compound: CC1(Oc2cc(C(=O)Nc3ccnc(C(F)(F)F)c3)nc(-n3ccnc3)n2)COC1 [Compound 41]
